Reference: US20210093619A1, “Chemical Compounds as ATF-4 Pathway Inhibitors” (GlaxoSmithKline Intellectual Property Development Limited, priority 2017, published 2021)

System: ATF4 pathway
Test: ATF4 Cell Based Assay (SH-SY5Y-ATF4-NanoLuc reporter, Thapsigargin challenge)
Conditions: SH-SY5Y-ATF4-NanoLuc cells, Thapsigargin 14-18 hours; average of a set of two or more experimental runs; read-out: average ATF4 pathway inhibitory activity (IC50)
From the text: The ATF4 reporter assay measures the effect of Thapsigargin induced cellular stress on ATF4 expression. For this reporter assay, a stable cell line was created by transfecting SH-SY5Y cells with a plasmid containing the NanoLuc® luciferase gene fused to the 5′-UTR of ATF4, under the control of the CMV promoter. The ATF4 5′-UTR contains two open reading frames which mediate the cellular stress-dependent translation of the reporter gene. Clones stably expressing the reporter construct were isolated and selected based on the luminescence response to thapsigargin and inhibition of this signal by test compounds. Briefly, SH-SY5Y-ATF4-NanoLuc cells were challenged with Thapsigargin for 14-18 hours to determine the stress effect with or without test compounds.
Cells were propagated in growth media consisting of 90% DMEM F12 (InVitrogen #11320-033), 10% Fetal Bovine Serum (Gibco #10438-026), 5mM Glutamax (Gibco #35050-061), 5 mM Hepes, (Gibco #15630-080), and 0.5 mg/ml Geneticin (Gibco #10131-027). Cells were prepared for the assay by removing all media from cells, washing the plated cells with phosphate buffered saline, and detached by adding a solution comprised of 10% Tryple express solution (InVitrogen12604-021) and 90% enzyme-free cell dissociation buffer HANKS base (Gibco 13150-016). The trypsin was deactivated by adding assay media comprised of 90% phenol-red free DMEM F12 (InVitrogen, 11039), 10% Fetal Bovine Serum (Gibco #10438-026),(5 mM Glutamax (Gibco #35050-061), 5 mM Hepes, (Gibco #15630-080), and 0.5 mg/ml Geneticin (Gibco #10131-027). Suspended cells were spun down at 300 g for 5 min, the supernatant was removed and the cell pellet was suspended in warm media (30-37° C.) comprised as above but without 10% Fetal Bovine Serum to a concentration of 1 e6 cells/ml.
Assay plates were prepared by adding 250 nL of compound stock solution in 100% DMSO to each well, followed by dispensing 20 microliters/well cell suspension to deliver 15-20 k cell/well. Cells were incubated for 1 hour at 37° C. Then, 5 μL of 1.5 μM or 1 μM of Thapsigargin (final concentration: 200-300 nM) was added to each well of cells. Assay plates containing cells were incubated for 14-18 hours at 37° C.
The measurement of luciferase produced by the ATF4 constructs was measured as follows. Aliquots of the Nano-Glo reagent (Nano-Glo® Luciferase Assay Substrate, Promega, N113, Nano-Glo® Luciferase Assay Buffer, Promega, N112 (parts of Nano-Glo® Luciferase Assay System, N1150) were brought to room temperature, the substrate and buffer were mixed according to manufacturer's instructions. The cell plates were equilibrated to room temperature. 25 microliters/well of the mixed Nano-Glo reagent were dispensed into assay wells and pulse spun to settle contents and the plate was sealed with film. The plates were incubated at room temperature for 1 hour before detecting luminescence on an EnVision® plate reader.

Compound	IC50 [nM]
O=C(COc1ccc(F)cc1)NC12CC(N3CCC(Oc4ccc(Cl)cc4)C3)(C1)C2 (single isomer, unassigned) [Example 6e, N-(3-(3-(4-chlorophenoxy)pyrrolidin-1-yl)bicyclo[1.1.1]pentan-1-yl)-2-(4-fluorophenoxy)acetamide]	20
O=C(COc1ccc(Cl)c(F)c1)NC12CC(N3CCC(Oc4ccc(Cl)cc4)C3)(C1)C2 (single isomer, unassigned) [Example 6o, 2-(4-chloro-3-fluorophenoxy)-N-(3-(3-(4-chlorophenoxy)pyrrolidin-1-yl)bicyclo[1.1.1]pentan-1-yl)acetamide]	5.7
O=C(COc1ccc(Cl)cc1)NC12CC(N3CCC(Oc4ccc(Cl)c(F)c4)C3)(C1)C2 (single isomer, unassigned) [Example 6v, N-(3-(3-(4-chloro-3-fluorophenoxy)pyrrolidin-1-yl)bicyclo[1.1.1]pentan-1-yl)-2-(4-chlorophenoxy)acetamide]	9.9
O=C(COc1ccc(Cl)cc1)NC12CC(N3CCC(Oc4ccc(Cl)cc4)C3)(C1)C2 (stereo in doubt) [Example 6c, (R)-2-(4-chlorophenoxy)-N-(3-(3-(4-chlorophenoxy)pyrrolidin-1-yl)bicyclo[1.1.1]pentan-1-yl)acetamide]	6.7
O=C(COc1cccc(Cl)c1)NC12CC(N3CCN(c4ccc(Cl)cc4)C3=O)(C1)C2 [Example 1g, 2-(3-chlorophenoxy)-N-(3-(3-(4-chlorophenyl)-2-oxoimidazolidin-1-yl)bicyclo[1.1.1]pentan-1-yl)acetamide]	17
O=C(COc1ccc(Cl)cn1)NC12CC(N3CCN(c4ccc(Cl)cc4)C3=O)(C1)C2 [Example 1k, N-(3-(3-(4-chlorophenyl)-2-oxoimidazolidin-1-yl)bicyclo[1.1.1]pentan-1-yl)-2-((5-chloropyridin-2-yl)oxy)acetamide]	34
O=C(COc1ccc(Cl)c(C(F)(F)F)c1)NC12CC(N3CCN(c4ccc(Cl)cc4)C3=O)(C1)C2 [Example 1l, 2-(4-chloro-3-(trifluoromethyl)phenoxy)-N-(3-(3-(4-chlorophenyl)-2-oxoimidazolidin-1-yl)bicyclo[1.1.1]pentan-1-yl)acetamide]	1.6
O=C(COc1ccc(Cl)c(F)c1)NC12CC(N3CCN(c4ccc(Cl)cc4)C3=O)(C1)C2 [Example 1m, 2-(4-chloro-3-fluorophenoxy)-N-(3-(3-(4-chlorophenyl)-2-oxoimidazolidin-1-yl)bicyclo[1.1.1]pentan-1-yl)acetamide]	0.6
O=C(COc1ccc(F)c(Cl)c1)NC12CC(N3CCN(c4ccc(Cl)cc4)C3=O)(C1)C2 [Example 1o, 2-(3-chloro-4-fluorophenoxy)-N-(3-(3-(4-chlorophenyl)-2-oxoimidazolidin-1-yl)bicyclo[1.1.1]pentan-1-yl)acetamide]	10.3
O=C(COc1ccc(Cl)cc1)NC12CC(N3CCN(c4ccc(C(F)(F)F)cc4)C3=O)(C1)C2 [Example 1r, 2-(4-chlorophenoxy)-N-(3-(2-oxo-3-(4-(trifluoromethyl)phenyl)imidazolidin-1-yl)bicyclo[1.1.1]pentan-1-yl)acetamide]	1.8
COc1ccc(N2CCN(C34CC(NC(=O)COc5ccc(Cl)cc5)(C3)C4)C2=O)cc1 [Example 1t, 2-(4-chlorophenoxy)-N-(3-(3-(4-methoxyphenyl)-2-oxoimidazolidin-1-yl)bicyclo[1.1.1]pentan-1-yl)acetamide]	51.7
O=C(COc1ccc(Cl)cc1)NC12CC(N3CCN(c4ccc(Cl)cc4F)C3=O)(C1)C2 [Example 1v, N-(3-(3-(4-chloro-2-fluorophenyl)-2-oxoimidazolidin-1-yl)bicyclo[1.1.1]pentan-1-yl)-2-(4-chlorophenoxy)acetamide]	23.2
O=C(COc1ccc(Cl)cc1)NC12CC(NC3CN(c4ccc(Cl)cc4)C3)(C1)C2 [Example 3a, 2-(4-chlorophenoxy)-N-(3-((1-(4-chlorophenyl)azetidin-3-yl)amino)bicyclo[1.1.1]pentan-1-yl)acetamide]	3.6 to 13.6
O=C(COc1ccc(Cl)cc1)NC12CC(N3CC(Oc4ccc(Cl)cc4)C3)(C1)C2 [Example 3b, 2-(4-chlorophenoxy)-N-(3-(3-(4-chlorophenoxy)azetidin-1-yl)bicyclo[1.1.1]pentan-1-yl)acetamide]	3.6 to 13.6
O=C(COc1ccc(Cl)cc1)NC12CC(NC(=O)COc3ccc4c(c3)CCCO4)(C1)C2 [Example 4d, 2-(4-chlorophenoxy)-N-(3-(2-(chroman-6-yloxy)acetamido)bicyclo[1.1.1]pentan-1-yl)acetamide]	12.2
O=C(COc1ccc(C(F)(F)F)cc1)NC12CC(N3CCC(Oc4ccc(Cl)cc4)C3)(C1)C2 (centres unmarked) [Example 6i, N-(3-(3-(4-chlorophenoxy)pyrrolidin-1-yl)bicyclo[1.1.1]pentan-1-yl)-2-(4-(trifluoromethyl)phenoxy)acetamide]	6.9
O=C(COc1ccc(Cl)c(C(F)(F)F)c1)NC12CC(N3CCC(Oc4ccc(Cl)cc4)C3)(C1)C2 (centres unmarked) [Example 6k, 2-(4-chloro-3-(trifluoromethyl)phenoxy)-N-(3-(3-(4-chlorophenoxy)pyrrolidin-1-yl)bicyclo[1.1.1]pentan-1-yl)acetamide]	24.6
O=C(COc1ccc(Cl)c(F)c1)NC12CC(N3CCC(Oc4ccc(Cl)cc4)C3)(C1)C2 (centres unmarked) [Example 6q, 2-(4-chloro-3-fluorophenoxy)-N-(3-(3-(4-chlorophenoxy)pyrrolidin-1-yl)bicyclo[1.1.1]pentan-1-yl)acetamide]	1.1
O=C(COc1ccc(Cl)cc1)NC12CC(N3CCC(Oc4ccc(Cl)cc4)CC3)(C1)C2 [Example 8a, 2-(4-chlorophenoxy)-N-(3-(4-(4-chlorophenoxy)piperidin-1-yl)bicyclo[1.1.1]pentan-1-yl)acetamide]	5.1
O=C(COc1ccc(Cl)cc1)NC12CCC(NC(=O)COc3ccc(Cl)nc3)(CC1)CC2 [Example III, 2-(4-chlorophenoxy)-N-(4-(2-((6-chloropyridin-3-yl)oxy)acetamido)bicyclo[2.2.2]octan-1-yl)acetamide]	8.89
Cc1ccc(OCC(=O)NC23CC(NC(=O)COc4ccc(Cl)cc4)(C2)C3)cn1 [Example IX, 2-(4-chlorophenoxy)-N-(3-(2-((6-methylpyridin-3-yl)oxy)acetamido)bicyclo[1.1.1]pentan-1-yl)acetamide]	300
O=C(COc1ccc(Cl)cc1)NC12CC(NC(=O)Cc3ccc(Cl)cc3)(C1)C2 [Example VI, 2-(4-chlorophenoxy)-N-(3-(2-(4-chlorophenyl)acetamido)bicyclo[1.1.1]pentan-1-yl)acetamide]	4.1
O=C(COc1ccc(Cl)cc1)NC12CC(NC(=O)c3ccc(Cl)cc3)(C1)C2 [Example XII, 4-chloro-N-(3-(2-(4-chlorophenoxy)acetamido)bicyclo[1.1.1]pentan-1-yl)benzamide]	25.2
COC(=O)CN(CCOc1ccc(Cl)cc1)C12CC(NC(=O)COc3ccc(Cl)cc3)(C1)C2 [Example XVI, methyl N-(3-(2-(4-chlorophenoxy)acetamido)bicyclo[1.1.1]pentan-1-yl)-N-(2-(4-chlorophenoxy)ethyl)glycinate]	13
O=C(COc1ccc(Cl)cc1)NC12CC(NCCNc3ccc(Cl)cc3)(C1)C2 [Example XXI, 2-(4-chlorophenoxy)-N-(3-((2-((4-chlorophenyl)amino)ethyl)amino)bicyclo[1.1.1]pentan-1-yl)acetamide]	33
O=C(COc1ccc(Cl)cc1)NC12CC(N3CCC(Oc4ccc(Cl)cc4)C3)(C1)C2 (centres unmarked) [XXIV and 6a]	7.3
